Values of other authors as cited in article PMC10104807, “Modulation of tau tubulin kinases (TTBK1 and TTBK2) impacts ciliogenesis” (Scientific Reports, 2023).

Key:
[1] = test system: 403 wild-type (WT) human kinases; set-up: method as in PMID 33944571; conditions: 1 μM; cited from earlier work
tau phosphorylation = conditions: cited from earlier work
[2] = set-up: method as in PMID 34978799; conditions: cited from earlier work

Structure (SMILES) | number of kinases bound with PoC < 10 in DiscoverX scanMAX panel [1] | tau phosphorylation at multiple disease-relevant sites in vivo (tau phosphorylation) | brain penetration [2]
CC[C@](C)(O)C#Cc1cc2c(cn1)cnn2-c1ccnc(N)n1 [BGN18] | sixteen |  | 
CC[C@](C)(O)C#Cc1cc2c(ccn2-c2cc(OC)nc(N)n2)cn1 [BGN31] | eight | significantly lowered | 
Clc1ccc(-c2ccc(Nc3ncnc4[nH]ccc34)cc2)cc1 [compound 29] |  |  | good brain penetration
